Results published in PMC8205603, “Simultaneous Quantification of Pioglitazone and Omarigliptin in Rat Plasma by UHPLC-MS/MS and Its Application to Pharmacokinetic Study after Coadministration of the Two Drugs” (Journal of Analytical Methods in Chemistry, 2021).
Counter-ions that a name gives are not always drawn. Like-named read-outs stand apart in the source and are kept apart here. Blank lines part the entries; values can stand above or below the molecule they belong to.

Experiments:
[1] = Stability of QC samples in rat plasma under different storage conditions; type: physicochemical; settings: n = 5
Procedure: Different concentrations of working solutions were diluted 20 times with blank rat plasma to prepare corresponding calibration samples. Final concentrations of calibration samples were 5, 25, 50, 100, 250, 500, 1000, and 2000 ng/mL for pioglitazone and 10, 50, 100, 200, 500, 1000, 2000, and 4000 ng/mL for omarigliptin. Quality control (QC) samples (5, 15, 400, 1500 ng/mL for pioglitazone and 10, 30, 800, 3000 ng/mL for omarigliptin) were prepared as the same way. All plasma samples were stored at −20°C until analysis.
QC samples with low, medium, and high concentrations were analyzed under different conditions, such as kept at room temperature for 6 h, frozen and thawed for three cycles, and frozen at −20°C for 7 days. The postextraction samples were stored in autosampler at 10°C for 24 hours and then reinjected to evaluate the autosampler stability. The measured concentrations were calculated according to the following standard curve. RE (%) and RSD (%) should be within ±15%.

[2] = Pharmacokinetics study in rats after single or combined intragastric administration; type: in vivo, Sprague-Dawley rats; settings: plasma, male SD rats
Procedure: Fifteen male Sprague-Dawley rats (6-8 weeks old, 190-210 g) were purchased from Jinan Pengyue Laboratory Animal Technology Co., Ltd. (Jinan, China). The animal certification number was 3707262011004044 and the production license number was SCXK (Lu) 20190003. Before the formal experiment, all rats were adaptively fed for one week at a temperature of 24 ± 2°C and a humidity of 55 ± 5% and then were randomly divided into three groups. In order to guarantee animal welfare, Animal Experiments Guidelines of Yantai Institute of Materia Medica (Yantai, China) was enforced. Pioglitazone and omarigliptin were suspended into 0.5% carboxymethyl cellulose sodium salt (CMC-Na) for intragastric administration. The dosage for rats was calculated based on the clinical dose. […] About 200 μL whole blood was collected into the heparinized tube at 0 min (pre-dose), 15 min, 30 min, 1 […], and 48 h and centrifugated immediately to collect plasma. All plasma samples were frozen at -20°C until analysis. Samples were processed and analyzed by the validated method. Data were acquired and analyzed by Xcalibur 4.1 software (Thermo Fisher Scientific, Massachusetts, USA). Pharmacokinetic parameters were calculated based on noncompartmental model using Phoenix WinNonlin 7.0 (Pharsight, Mountain View, CA). All data were shown as mean ± SD.

[3] = Auto-sampler stability (10°C for 24 h), postextraction samples, nominal 15 ng/mL pioglitazone
[4] = Auto-sampler stability (10°C for 24 h), postextraction samples, nominal 400 ng/mL pioglitazone
[5] = Auto-sampler stability (10°C for 24 h), postextraction samples, nominal 1500 ng/mL pioglitazone
[6] = Freeze (−20°C for 7 days), rat plasma, nominal 15 ng/mL pioglitazone
[7] = Freeze (−20°C for 7 days), rat plasma, nominal 400 ng/mL pioglitazone
[8] = Room temperature for 6 h, rat plasma, nominal 15 ng/mL pioglitazone
[9] = Room temperature for 6 h, rat plasma, nominal 400 ng/mL pioglitazone
[10] = Room temperature for 6 h, rat plasma, nominal 1500 ng/mL pioglitazone
[11] = Three freeze-thaw cycles, rat plasma, nominal 15 ng/mL pioglitazone
[12] = Three freeze-thaw cycles, rat plasma, nominal 400 ng/mL pioglitazone
[13] = Three freeze-thaw cycles, rat plasma, nominal 1500 ng/mL pioglitazone
[14] = male, Sprague-Dawley, rat, po, 2.6 mg/kg, pioglitazone 2.6 mg/kg in combination with omarigliptin 2.6 mg/kg, intragastric, n = 5
[15] = male, Sprague-Dawley, rat, po, 2.6 mg/kg, pioglitazone 2.6 mg/kg intragastric, single administration, n = 5
[16] = Auto-sampler stability (10°C for 24 h), postextraction samples, nominal 30 ng/mL omarigliptin
[17] = Auto-sampler stability (10°C for 24 h), postextraction samples, nominal 800 ng/mL omarigliptin
[18] = Auto-sampler stability (10°C for 24 h), postextraction samples, nominal 3000 ng/mL omarigliptin
[19] = Freeze (−20°C for 7 days), rat plasma, nominal 30 ng/mL omarigliptin
[20] = Freeze (−20°C for 7 days), rat plasma, nominal 800 ng/mL omarigliptin
[21] = Freeze (−20°C for 7 days), rat plasma, nominal 3000 ng/mL omarigliptin
[22] = Room temperature for 6 h, rat plasma, nominal 30 ng/mL omarigliptin
[23] = Room temperature for 6 h, rat plasma, nominal 800 ng/mL omarigliptin
[24] = Room temperature for 6 h, rat plasma, nominal 3000 ng/mL omarigliptin
[25] = Three freeze-thaw cycles, rat plasma, nominal 30 ng/mL omarigliptin
[26] = Three freeze-thaw cycles, rat plasma, nominal 800 ng/mL omarigliptin
[27] = Three freeze-thaw cycles, rat plasma, nominal 3000 ng/mL omarigliptin
[28] = male, Sprague-Dawley, rat, po, 2.6 mg/kg, omarigliptin 2.6 mg/kg in combination with pioglitazone 2.6 mg/kg, intragastric, n = 5
[29] = male, Sprague-Dawley, rat, po, 2.6 mg/kg, omarigliptin 2.6 mg/kg intragastric, single administration, n = 5

Accuracy (RE %) [1, 3]: 3.95%
Measured concentrations [1, 3]: 15.59 ± 1.05 ng/mL
Accuracy (RE %) [1, 4]: −9.17%
Measured concentrations [1, 4]: 363.31 ± 1.73 ng/mL
Accuracy (RE %) [1, 5]: −5.24%
Measured concentrations [1, 5]: 1421.47 ± 7.30 ng/mL
Accuracy (RE %) [1, 6]: −8.77%
Measured concentrations [1, 6]: 13.68 ± 0.10 ng/mL
Accuracy (RE %) [1, 7]: 0.24%
Measured concentrations [1, 7]: 400.95 ± 1.64 ng/mL
Measured concentrations ([1]; Freeze (−20°C for 7 days), rat plasma, nominal 1500 ng/mL pioglitazone): 1328.31 ± 5.99 ng/mL
Accuracy (RE %) [1, 8]: −4.62%
Measured concentrations [1, 8]: 14.31 ± 0.34 ng/mL
Accuracy (RE %) [1, 9]: −9.56%
Measured concentrations [1, 9]: 361.75 ± 1.91 ng/mL
Accuracy (RE %) [1, 10]: −5.41%
Measured concentrations [1, 10]: 1418.82 ± 5.26 ng/mL
Accuracy (RE %) [1, 11]: −8.12%
Measured concentrations [1, 11]: 13.78 ± 0.11 ng/mL
Accuracy (RE %) [1, 12]: 0.52%
Measured concentrations [1, 12]: 402.08 ± 1.11 ng/mL
Accuracy (RE %) [1, 13]: −11.10%
Measured concentrations [1, 13]: 1333.57 ± 7.61 ng/mL
AUC(0-inf) [2, 14]: 19 ± 2.6 µg·h/mL
AUC(0-t) [2, 14]: 19 ± 2.58 µg·h/mL
Cmax [2, 14]: 2.46 ± 0.754 µg/mL
half-life [2, 14]: 2.1 ± 0.2 h
AUC(0-inf) [2, 15]: 17 ± 2.13 µg·h/mL
AUC(0-t) [2, 15]: 16.9 ± 2.21 µg·h/mL
Cmax [2, 15]: 2.55 ± 0.475 µg/mL
half-life [2, 15]: 2.8 ± 1 h
Tmax ([2]; male, Sprague-Dawley, rat, po, 2.6 mg/kg, pioglitazone 2.6 mg/kg intragastric, single administration, n = 5, read-out: t max): 1.8 ± 0.4 h
Tmax ([2]; pioglitazone 2.6 mg/kg in combination with omarigliptin 2.6 mg/kg, intragastric, n = 5): 2.0 ± 0 h
SMILES: CCc1ccc(CCOc2ccc(CC3SC(=O)NC3=O)cc2)nc1 (stereo not drawn) [Pioglitazone, Pioglitazone hydrochloride]

Accuracy (RE %) [1, 16]: 6.70%
Measured concentrations [1, 16]: 32.01 ± 2.13 ng/mL
Accuracy (RE %) [1, 17]: −4.69%
Measured concentrations [1, 17]: 762.47 ± 4.84 ng/mL
Accuracy (RE %) [1, 18]: −0.09%
Measured concentrations [1, 18]: 2997.38 ± 9.39 ng/mL
Accuracy (RE %) [1, 19]: −4.79%
Measured concentrations [1, 19]: 28.56 ± 0.11 ng/mL
Accuracy (RE %) [1, 20]: 0.28%
Measured concentrations [1, 20]: 802.26 ± 4.01 ng/mL
Accuracy (RE %) [1, 21]: −10.36%
Measured concentrations [1, 21]: 2689.12 ± 45.57 ng/mL
Accuracy (RE %) [1, 22]: 0.05%
Measured concentrations [1, 22]: 30.01 ± 0.40 ng/mL
Accuracy (RE %) [1, 23]: −7.74%
Measured concentrations [1, 23]: 738.06 ± 4.52 ng/mL
Accuracy (RE %) [1, 24]: −2.07%
Measured concentrations [1, 24]: 2937.89 ± 7.68 ng/mL
Accuracy (RE %) [1, 25]: −5.13%
Measured concentrations [1, 25]: 28.46 ± 0.25 ng/mL
Accuracy (RE %) [1, 26]: −0.68%
Measured concentrations [1, 26]: 794.54 ± 9.37 ng/mL
Accuracy (RE %) [1, 27]: −10.98%
Measured concentrations [1, 27]: 2670.56 ± 16.54 ng/mL
AUC(0-inf) [2, 28]: 31.3 ± 3.81 µg·h/mL
AUC(0-t) [2, 28]: 30.4 ± 3.76 µg·h/mL
Cmax [2, 28]: 2.52 ± 0.435 µg/mL
Tmax ([2]; male, Sprague-Dawley, rat, po, 2.6 mg/kg, omarigliptin 2.6 mg/kg in combination with pioglitazone 2.6 mg/kg, intragastric, n = 5, read-out: t max): 1.8 ± 0.4 h
AUC(0-inf) [2, 29]: 37.7 ± 4.1 µg·h/mL
AUC(0-t) [2, 29]: 36.6 ± 4.07 µg·h/mL
Cmax [2, 29]: 3 ± 0.394 µg/mL
Tmax ([2]; male, Sprague-Dawley, rat, po, 2.6 mg/kg, omarigliptin 2.6 mg/kg intragastric, single administration, n = 5, read-out: t max): 1.5 ± 0.7 h
t 1/2 ([2]; omarigliptin 2.6 mg/kg intragastric, single administration, n = 5): 10.9 ± 0.5 h
SMILES: CS(=O)(=O)n1cc2c(n1)CN([C@H]1CO[C@H](c3cc(F)ccc3F)[C@@H](N)C1)C2 [Omarigliptin]
